melting point | Compound
72.5 to 74 °C | O=C(Cl)N1CC(Oc2cccc(C(F)(F)F)c2)C1
188 to 190 °C | CC(Cc1ccc(OCc2cccc(C(N)=O)c2)cc1)NCCC(c1ccccc1)c1ccccc1 (stereo unspecified)
85 to 87 °C | CCOC(=O)C(=O)CCc1ccc(OC)c(OC)c1
135 to 136 °C | N#CN1CCC(c2nn(-c3ccc(C(F)(F)F)cc3)c3ccccc23)CC1
79 to 81 °C | CC(C)NCC(O)COc1ccc2c(c1)OC(C)CC2 (stereo unspecified)
176 to 178 °C | O=C1CCCc2sc(CCN3CCC(c4coc5cc(F)ccc45)CC3)cc2N1
161 to 163 °C | OCN1CCN=C1CC(c1ccccc1)c1ccccc1
73 to 75 °C | CC1CNCCNCCNCCNCCN1 (stereo unspecified)
144 to 146 °C | CC(CCCl)C(=O)Nc1cc(C(C)(C)C)ns1 (stereo unspecified)
160 to 163 °C | CCc1c(CO)nc(-c2ccc(OC)c(OC)c2)c2cc(OC)c(OC)cc12
118 to 122 °C | CC1CCc2ncc(-c3ccccc3)c(=O)n21 (stereo unspecified)
210 °C | CN(C)c1ccc(C(=S)Nc2ccc([N+](=O)[O-])cc2)cc1
158 to 160 °C | NS(=O)(=O)c1cc2c(Cl)csc2s1
145 to 146 °C | COC(=O)c1cc(OC)c(-n2cccc2)c(OC)c1
60 to 61 °C | CCOC(=O)Nn1cccc1
258 to 259 °C | Cc1ccc2nc(N3CCN(c4ncccc4Cl)CC3)[nH]c2c1
137 to 144 °C | FC(F)(F)c1[nH]c(-c2cccc(Cl)c2)nc1Br
100 to 101 °C | N#CCCN1CCC(c2noc3cc(F)ccc23)CC1
132 to 134 °C | CCCC(=O)OCC(=O)C1(OC(=O)COC)CCC2C3CC(C)C4=CC(=O)C=CC4(C)C3C(O)CC21C (stereo unspecified)
57 to 58 °C | Cc1cc2ccccn2c1
175 to 180 °C | CC(=O)Nc1cc2c(c3c1OC(C)(C)C3)C(c1ccccc1)=NC(C)(C)C2
207 to 208 °C | CCc1cnc(N2CCN(C(=O)c3ccc(CNc4nc(-c5ccccc5)nc5ccccc45)cc3)CC2)nc1
155 to 156 °C | CCOP(=O)(OCC)C(F)(F)c1ccc(NC(=O)CCc2oc(-n3cnc4ccccc43)nc2-c2ccc(Cl)cc2)cc1
168 to 170 °C | CSC(Nc1cccc(C#N)c1)=C(C#N)S(=O)(=O)c1ccc(Cl)cc1
160 to 165 °C | CCN1Cc2nc(CO)cn2-c2ccccc21

melting point | Compound
129 to 132 °C | CN1CCN(C2=Nc3ccccc3N3CCCc4cccc2c43)CC1
139 to 140 °C | CC(=O)NCC1CC1c1c(C)ccc2nn(C)cc12 (stereo unspecified)
57 to 58 °C | Cc1ccc(-c2nc(CCCOS(=O)(=O)c3ccc(C)cc3)c(C(F)(F)F)o2)cc1
71 to 72 °C | CC(C)(C)c1cc2ccccc2[nH]1
131 to 133 °C | N[C@H]1CCCC[C@H]1CCC(O)(P(=O)(O)O)P(=O)(O)O (relative stereo)
198 to 199 °C | CC(C)=C(C[C@H](N)C(=O)O)C(=O)O
70 to 73 °C | COc1cccc(C(N)c2sccc2S(=O)(=O)Nc2onc(C)c2Br)c1 (stereo unspecified)
107 to 112 °C | OCc1c(Cl)cc(Cl)c2ccc(Cl)cc12
114 to 115 °C | CCOc1nc2c(cnn2CC)nc1C(=O)NN1CCCCC1
180 to 182 °C | O=C(O)c1cc(S(=O)(=O)N2CC=CCC2)ccc1Cl
184 to 188 °C | Cn1c(COc2ccc(CC3SC(=O)NC3=O)cc2)nc2ccc(OCCc3ccc(N)cc3)cc21 (stereo unspecified)
116 °C | O=C(NCCc1cncn1Cc1ccc(Cl)cc1)[C@H]1CN(Cc2ccccc2)CCN1C(=O)NC1CCCCC1
297 to 303 °C | Cn1cc(C2=C(c3c4n(c5ccccc35)CCC(CNC(=O)c3ccccc3)C4)C(=O)NC2=O)c2ccccc21 (stereo unspecified)
185 to 187 °C | Cc1ncc(CSC(=O)c2cccc(C(=O)SCc3cnc(C)c(O)c3CO)c2)c(CO)c1O
111 to 112 °C | c1cc(NC2CC2)ccn1
142 to 144 °C | COc1cc(C(=O)O)c(OC)c2ccccc12
70 to 71 °C | CCC(=O)c1cnc(C(=O)C(C)C)cn1
85 to 86.7 °C | CCOC(=O)c1ccc(-c2c(F)ccc([N+](=O)[O-])c2F)cc1
121 to 123 °C | CCCCc1ccc(N2CCN(C(=O)Nc3nc(C)c(C)nc3OC)CC2)cc1
128 to 130 °C | O=C(/C(=C\c1ccc(I)cc1)Sc1ccc(Br)cc1)c1ccc(Br)cc1
153 to 155 °C | COc1ccc(C(=O)Nc2c(Cl)cncc2Cl)cc1OC1CCCC1
161 to 163 °C | O=c1oc(-c2ccc(Cl)cc2)cc(O)c1SCCc1ccccc1
55 to 58 °C | CCOP(=O)(Cc1ccc(-c2ccccc2)cc1)OCC
267 to 268 °C | O=C(Nc1cnc2c(c1)nc1n2CCC1O)c1cc2cc(C(F)(F)F)ccc2n1Cc1cccc(F)c1 (stereo unspecified)
62 to 66 °C | O=C1Oc2ccccc2Oc2ccccc21

melting point | Compound
121 to 122 °C | O=C(O)c1ccc(N2C3CCC2CN(CC(=O)N2CC=C(c4cccc5ccsc45)CC2)C3)nc1
133 to 138 °C | COc1ccc2c(c1F)OCc1c(C(F)(F)F)nn(-c3ccc(S(N)(=O)=O)cc3)c1-2
95 to 97 °C | C=CC(=O)OC12Oc3cc(C(C)C)ccc3C1(O)C(=O)c1ccccc12 (stereo unspecified)
255 to 256 °C | CON=C1CN(c2c(F)cc3c(=O)c(C(=O)O)cn(C4CC4)c3c2F)CC12CN(C(=O)OC(C)(C)C)C2
183 to 185 °C | COCc1nc(N)nc(N)c1-c1ccc(Cl)cc1Cl
113 °C | O=C(c1ccc(F)cc1)c1cc2ccsc2s1
140 to 142 °C | CCc1cc(CCc2nc3ccccc3o2)c(=O)[nH]c1COCc1ccccc1
> 310 °C | COc1ccc(-c2c(C(N)=O)n(C)c(=O)c3ncccc23)cc1
192 to 194 °C | Cc1c(CC(C)C)sc2nc(C(Cl)(Cl)Cl)[nH]c(=O)c12
89 to 92 °C | COC(=O)c1ccc(NCc2cccc(F)c2)cn1
180 to 182 °C | O=C(Cl)c1ccc(S(=O)(=O)NC(=O)c2ccccc2)cc1
154 to 155 °C | CON=C(C)c1ccc(C(=O)Nc2ccc(C(C)(C)C)cc2)cc1
137 to 139 °C | Cc1onc(NS(=O)(=O)c2cccc([N+](=O)[O-])c2)c1Br
190 to 191 °C | NC1=NN(c2ccc3ccccc3c2)CC1
168 to 169 °C | Cc1c(F)cccc1NC(=O)CN1CC2CCC(C1)N2S(=O)(=O)c1ccccc1
220 to 222 °C | CC(C)(C)c1cc(C2N(c3ccc(Cl)cc3)CCN2c2ccc(Cl)cc2)cc(C(C)(C)C)c1O
136 to 139 °C | COc1ccc(C(C)(C)C)cc1C(=O)c1cc([N+](=O)[O-])ccc1Cl
202 °C | O=C(O)Cc1ccc2c(c1)Nc1ccccc1S2
105 to 108 °C | COc1c(C)c(C)c(OC)c(C(O)(c2ccc(C(C)C)cc2)C2CCN(Cc3ccccc3)CC2)c1C (stereo unspecified)
127 °C | CCOC(=O)N1CCC(Nc2nc3ncnc(Cl)c3n2Cc2ccc(F)cc2)CC1
182 to 186 °C | COc1cc(OCCCN2CCC[C@H]2C)ccc1-c1ccc(=O)[nH]n1
191 to 193 °C | COc1cc2c(cc1OC)-c1c(-c3nc(-c4ccccc4)no3)c(-c3cc(C)c(O)c(C)c3)c(C)n1CC2
173 to 175 °C | CCCN(CCC)CCCn1cc(Br)c2c3c(c(-c4ccccc4Cl)cc21)C(=O)NC3=O
235 to 237 °C | COc1ccc2nc(NC(=O)C(CC3CCCC3)c3ccc(S(=O)(=O)NC4CC4)cc3)sc2n1 (stereo unspecified)
235 °C | CC(O)Cc1c2c(cc3c(=O)cc(C(=O)O)oc13)CCCC2 (stereo unspecified)

melting point | Compound
210 °C | Cc1c(C(=O)c2ccc(Cl)c(S(N)(=O)=O)c2)sc2ccccc12
160 to 161 °C | N#Cc1cccc(-c2cnn(-c3ccccn3)c2)c1
140 to 145 °C | Cc1c(Cc2cccc(C(F)(F)F)c2)sc2c(-c3cccc(C(=O)NCCO)c3)cccc12
68 to 71 °C | CCCSc1nc(C)c(CC(=O)O)n1-c1ccccc1Cl
167 to 170 °C | Cc1nc(-n2cc(CCc3ccccc3)nn2)sc1C(=O)NCc1ccccc1
140 °C | COC(C)(CC(=O)NC12CC3CC(CC(C3)C1)C2)OC
150 to 153 °C | CCCCCCCCOc1ccc2cc(C(=O)O)ccc2c1
167 to 169 °C | COC(=O)NCCNC(=O)c1cc(C)c(C(c2cc(F)ccc2F)S(=O)(=O)c2ccc(F)cc2)cn1 (stereo unspecified)
211 to 212 °C | NC(=O)CC[C@H](Nc1ccc(O)cc1)C(=O)O
146 to 149 °C | CC(C)c1nc2c(c(-c3ccc(F)cc3)c1CO)CCCC2(C)C
125 to 127 °C | CCN(CC)C1CCN(c2ccc(C(C)=O)cc2)CC1
254 °C | Cc1cc(-c2cc(C(F)(F)F)n3cnc(-c4ccncc4)c3n2)ccc1Cl
209 °C | O=c1c(Cl)c(-c2ccc3c(ccn3[C@H]3CC[C@H](O)CC3)c2)ccn1CC1CC1
187 to 188 °C | COC(=O)c1cn2c(-c3ccc4ccccc4c3)csc2n1
244 to 247 °C | Cc1cc(O)ccc1-c1c(C=O)sc(-c2ccc(O)cc2)c1C
281 °C | O=C(CCCl)Nc1ccc2c(c1)C(=O)c1cc(NC(=O)CCCl)ccc1C2=O
135 to 136 °C | Cc1cc(CC(=O)O)cc2c1NC(C(F)(F)F)CC2 (stereo unspecified)
156 to 160 °C | CCOC(=O)c1c(Nc2ccccc2C)n[nH]c1C
178 to 180 °C | Clc1cc(N2CCCC2)nc(NC23CC4CC(CC(C4)C2)C3)n1
290 to 293 °C | O=C1NC(=O)C2(N1)C1CC3CC(C1)CC2C3 (stereo unspecified)
166 to 168 °C | CN1C(=O)c2c(Cl)cc(Cl)c(Cl)c2C1=O
127 to 129 °C | Cc1oc2c(-n3c(=O)cc(C(F)(F)F)n(C)c3=O)c(F)cc(Cl)c2c1CC(N)=O
62 to 77 °C | OCC(OC1CCCCO1)c1ccc2sccc2c1 (single isomer, unassigned; (-))

Compound | melting point
CCOC(=O)C1(CC(=O)O)N=C(c2ccc(Cl)cc2)c2c(sc(C)c2C)-n2c(C)nnc21 (stereo unspecified) | 198 to 202 °C
CCC(=O)C1(O)CC=C2CC3C4C=CC(O)C5OC1=C2C45CCN3C (stereo unspecified) | 85 to 86 °C
O=C(NCc1ccc(Cl)cc1)c1cn(Cc2cccnc2)c2sc(CN3CCOCC3)cc2c1=O | 214 to 215 °C
